Assay results taken from patent US10717734B2, “Indole and azaindole haloallylamine derivative inhibitors of lysyl oxidases and uses thereof” (PHARMAXIS LTD., priority 2016, dated 2020).
Structures can show the parent of a compound that is named as a salt.

Assays:
Format in all cases: biochemical
[1] = target: Human LOXL2 (Homo sapiens (Human), UniProt Q9Y4K0); experiment: LOXL2 inhibition, peroxidase-coupled Amplex Red amine oxidase assay; conditions: 30 min preincubation at 37° C., putrescine substrate
Text: (§1) Method to Determine the Ability of Compounds of the Invention to Inhibit LOX and LOXL1-4 from Different Sources
(§2) Lysyl oxidase (LOX) is an extracellular copper dependent enzyme which oxidizes peptidyl lysine and hydroxylysine residues in collagen and lysine residues in elastin to produce peptidyl alpha-aminoadipic-delta-semialdehydes. […] There are five LOX family members; these are LOX, LOXL1, LOXL2, LOXL3 and LOXL4. LOX and LOXL family members can be acquired as recombinant active proteins from commercial sources, or extracted from animal tissues like bovine aorta, tendons, pig skin; or prepared from cell cultures. The inhibitory effects of the compounds of the present invention were tested against the given LOX-LOXL preparation using a high-throughput coupled colorimetric method (Holt A. and Palcic M., A peroxidase-coupled continuous absorbance plate-reader assay for flavin monoamine oxidases, copper-containing amine oxidases and related enzymes. Nat. Protoc. 2006; 1: 2498-2505). The assay was developed using either 384 or 96 well format. Briefly, in a standard 384 well plate assay 25 μL of a dilution of any of the isoenzymes and orthologues in 1.2 M urea, 50 mM sodium borate buffer (pH 8.2) were added into each well in the presence of 1 μM mofegiline and 0.5 mM pargyline (to inhibit SSAO and MAO-B and MAO-A, respectively). Test compounds were dissolved in DMSO and tested in a Concentration Response Curve (CRC) with 11 data points, typically in the micromolar or nanomolar range after incubation with the enzyme for 30 min at 37° C. Twenty five μL of a reaction mixture containing twice the KM concentration of putrescine (Sigma Aldrich, e.g. 20 mM for LOX, or 10 mM for LOXL2 and LOXL3), 120 μM Amplex Red (Sigma Aldrich) and 1.5 U/mL horseradish peroxidase (Sigma Aldrich) prepared in 1.2 M urea, 50 mM sodium borate buffer (pH 8.2) were then added to the corresponding wells. The above volumes were doubled in the case of 96 wells plate. The fluorescence (RFU) was read every 2.5 min for 30 min at a range of temperatures from 37° to 45° C., excitation 565 nm and emission 590 (Optima; BMG labtech). The slope of the kinetics for each well was calculated using MARS data analysis software (BMG labtech) and this value was used to deduce the IC50 value (Dotmatics).

[2] = target: Recombinant human MAO-B (Homo sapiens (Human), UniProt P27338); experiment: Human recombinant MAO-B inhibition; conditions: benzylamine 100 μM
Method: Method to Determine the Ability of Compounds of Formula I to Inhibit Human Recombinant MAO-B
The specificity of the compounds of this invention was tested by determining their ability to inhibit MAO-B activities in vitro. Recombinant human MAO-B (0.06 mg/mL; Sigma Aldrich) was used as source of MAO-B enzyme activities. The assay was performed in a similar way as for human SSAO/VAP-1 (Example 36) except, the substrate benzylamine was used at 100 μM.

[3] = target: Bovine LOX (Bos taurus (Bovine), UniProt P33072); experiment: LOX inhibition, peroxidase-coupled Amplex Red amine oxidase assay; conditions: 30 min preincubation at 37° C., putrescine substrate
Text: as §1
as §2, with “Test compounds were dissolved in DMSO and tested in a Concentration Response Curve (CRC) with 11 data points, typically in the micromolar or nanomolar range after incubation with the enzyme for 30 min at 37° C.” left out

[4] = target: Human recombinant SSAO/VAP-1 (Homo sapiens (Human), UniProt Q16853); experiment: Human recombinant SSAO/VAP-1 amine oxidase inhibition; conditions: 30 min preincubation at 37° C., 600 μM benzylamine
Method: Method to Determine the Ability of Compounds of Formula I to Inhibit Human Recombinant SSAO/VAP-1
Human recombinant SSAO/VAP-1 amine oxidase activity was determined using the coupled colorimetric method as described for monoamine oxidase, copper-containing amine oxidases and related enzymes (Holt A. and Palcic M., A peroxidase-coupled continuous absorbance plate-reader assay for flavin monoamine oxidases, copper-containing amine oxidases and related enzymes. Nat Protoc 2006; 1: 2498-2505). Briefly, a cloned cDNA template corresponding to residues 34-763 of human SSAO/VAP-1, and incorporating a mouse Ig kappa (κ) signal sequence, N-terminal flag epitope tag and tobacco etch virus (TEV) cleavage site, was assembled in a mammalian expression vector (pLO-CMV) by Geneart AG. This vector containing human SSAO/VAP-1 residues was transfected into CHO-K1 glycosylation mutant cell line, Lec 8. A clone stably expressing human SSAO/VAP-1 was isolated and cultured in large scale. Active human SSAO/VAP-1 was purified and recovered using immunoaffinity chromatography. This was used as the source for SSAO/VAP-1 activity. A high-throughput colorimetric assay was developed using either 96 or 384 well format. Briefly, in a standard 96 well plate assay 50 μL of purified human SSAO/VAP-1 (0.25 μg/mL) in 0.1 M sodium phosphate buffer (pH 7.4) was added into each well. Test compounds were dissolved in DMSO and tested in a Concentration Response Curve (CRC) with 4-11 data points, typically in the micromolar or nanomolar range after incubation with human SSAO/VAP-1 for 30 min at 37° C. After 30 min incubation, 50 μL of the reaction mixture containing 600 μM benzylamine (Sigma Aldrich), 120 μM Amplex Red (Sigma Aldrich) and 1.5 U/mL horseradish peroxidase (Sigma Aldrich) prepared in 0.1 M sodium phosphate buffer (pH 7.4) were added to the corresponding well. The fluorescence unit (RFU) was read every 2.5 min for 30 min at 37° C. excitation 565 nm and emission 590 (Optima; BMG labtech). The slope of the kinetics for each well was calculated using MARS data analysis software (BMG labtech) and this value was used to deduce the IC50 value (Dotmatics).

Human recombinant SSAO/VAP-1, sequence (Q16853 34-763): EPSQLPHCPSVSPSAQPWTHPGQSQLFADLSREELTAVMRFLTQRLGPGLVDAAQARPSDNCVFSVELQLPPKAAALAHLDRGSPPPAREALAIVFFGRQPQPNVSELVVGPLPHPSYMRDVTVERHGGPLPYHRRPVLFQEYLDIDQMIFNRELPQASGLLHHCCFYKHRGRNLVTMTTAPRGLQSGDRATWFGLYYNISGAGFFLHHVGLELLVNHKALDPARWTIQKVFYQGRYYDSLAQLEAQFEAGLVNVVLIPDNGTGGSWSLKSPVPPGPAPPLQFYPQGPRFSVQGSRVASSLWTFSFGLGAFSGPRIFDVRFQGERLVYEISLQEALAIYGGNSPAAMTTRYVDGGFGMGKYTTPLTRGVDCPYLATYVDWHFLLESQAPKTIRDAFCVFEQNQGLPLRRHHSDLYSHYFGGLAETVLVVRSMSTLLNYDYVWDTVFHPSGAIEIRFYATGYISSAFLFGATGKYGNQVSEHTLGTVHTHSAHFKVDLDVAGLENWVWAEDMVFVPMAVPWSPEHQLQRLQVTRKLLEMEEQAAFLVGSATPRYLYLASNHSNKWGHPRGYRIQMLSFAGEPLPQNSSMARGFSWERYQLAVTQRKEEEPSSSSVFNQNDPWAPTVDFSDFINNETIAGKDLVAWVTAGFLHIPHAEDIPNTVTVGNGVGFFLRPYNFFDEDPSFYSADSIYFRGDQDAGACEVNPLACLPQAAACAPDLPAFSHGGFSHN
Recombinant human MAO-B, sequence (P27338 whole entry): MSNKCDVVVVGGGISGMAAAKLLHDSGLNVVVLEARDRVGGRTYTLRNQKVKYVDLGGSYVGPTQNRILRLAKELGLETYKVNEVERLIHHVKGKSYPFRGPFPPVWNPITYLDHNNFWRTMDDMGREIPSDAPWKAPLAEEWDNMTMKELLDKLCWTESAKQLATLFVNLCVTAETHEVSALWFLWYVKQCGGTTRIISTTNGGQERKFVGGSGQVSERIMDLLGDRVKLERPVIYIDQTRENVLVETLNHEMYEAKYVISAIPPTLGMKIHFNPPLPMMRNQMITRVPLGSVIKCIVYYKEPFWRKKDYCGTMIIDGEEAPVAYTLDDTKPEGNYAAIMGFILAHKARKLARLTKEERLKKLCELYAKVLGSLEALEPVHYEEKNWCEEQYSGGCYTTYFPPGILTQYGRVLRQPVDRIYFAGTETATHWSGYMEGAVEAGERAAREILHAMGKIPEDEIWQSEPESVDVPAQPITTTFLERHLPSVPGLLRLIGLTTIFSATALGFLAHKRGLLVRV
Human LOXL2, sequence (Q9Y4K0 26-774): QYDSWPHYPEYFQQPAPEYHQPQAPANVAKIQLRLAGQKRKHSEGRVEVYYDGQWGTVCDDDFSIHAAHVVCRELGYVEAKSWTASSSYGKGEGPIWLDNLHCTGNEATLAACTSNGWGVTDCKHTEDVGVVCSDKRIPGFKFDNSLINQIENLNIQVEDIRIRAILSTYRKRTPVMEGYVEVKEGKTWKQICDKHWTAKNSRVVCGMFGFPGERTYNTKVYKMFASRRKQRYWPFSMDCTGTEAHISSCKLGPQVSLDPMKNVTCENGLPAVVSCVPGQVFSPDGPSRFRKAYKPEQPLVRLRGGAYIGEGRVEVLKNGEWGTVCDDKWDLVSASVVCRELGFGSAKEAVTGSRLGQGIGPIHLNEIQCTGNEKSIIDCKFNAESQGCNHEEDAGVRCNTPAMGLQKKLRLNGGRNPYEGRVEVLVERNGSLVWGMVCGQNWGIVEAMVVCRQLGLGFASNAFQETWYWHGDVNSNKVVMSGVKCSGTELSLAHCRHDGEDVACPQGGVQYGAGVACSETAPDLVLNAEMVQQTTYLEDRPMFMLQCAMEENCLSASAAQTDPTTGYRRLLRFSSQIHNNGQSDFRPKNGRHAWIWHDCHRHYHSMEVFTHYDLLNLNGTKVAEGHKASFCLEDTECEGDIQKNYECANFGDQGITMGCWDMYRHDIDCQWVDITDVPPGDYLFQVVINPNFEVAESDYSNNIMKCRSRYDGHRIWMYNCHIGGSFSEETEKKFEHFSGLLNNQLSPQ
Bovine LOX, sequence (P33072 170-418): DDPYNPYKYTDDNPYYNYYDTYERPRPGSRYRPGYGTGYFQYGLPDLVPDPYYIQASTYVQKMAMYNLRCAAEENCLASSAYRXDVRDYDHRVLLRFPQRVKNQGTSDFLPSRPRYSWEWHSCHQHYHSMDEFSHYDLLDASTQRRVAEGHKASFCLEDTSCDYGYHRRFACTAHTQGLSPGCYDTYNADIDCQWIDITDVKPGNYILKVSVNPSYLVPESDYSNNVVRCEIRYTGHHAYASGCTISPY

SMILES | IC50 [1] [µM] | IC50 [2] [µM] | IC50 [3] [µM] | IC50 [4] [µM]
Cc1c(Cc2ccc(S(=O)(=O)N(C)C)cc2)c2ccccc2n1C/C(F)=C/CN [Compound 26, (Z)-4-((1-(4-amino-2-fluorobut-2-en-1-yl)-2-methyl-1H-indol-3-yl)methyl)-N,N-dimethylbenzene-sulfonamide hydrochloride] | < 0.3 | > 3 | > 0.3 | > 3
Cc1c(Cc2ccc(S(C)(=O)=O)nc2)c2nc(C3CC3)ccc2n1C/C(F)=C/CN [Compound 27, (Z)-4-(5-cyclopropyl-2-methyl-3-((6-(methylsulfonyl)pyridin-3-yl)methyl)-1H-pyrrolo[3,2-b]pyridin-1-yl)-3-fluorobut-2-en-1-amine trihydrochloride] | < 0.3 | > 3 | > 0.3 | > 3
Cc1c(Cc2ccc(S(=O)(=O)N(C)C)cc2)c2nc(C(C)(C)O)ccc2n1C/C(F)=C/CN [Compound 28, (Z)-4-((1-(4-amino-2-fluorobut-2-en-1-yl)-5-(2-hydroxypropan-2-yl)-2-methyl-1H-pyrrolo[3,2-b]pyridin-3-yl)methyl)-N,N-dimethylbenzenesulfonamide dihydrochloride] | < 0.3 | > 3 | > 0.3 | > 3
CC(O)c1c(Cc2ccc(S(=O)(=O)N(C)C)cc2)c2ncccc2n1C/C(F)=C/CN (stereo not shown) [Compound 29, (Z)-4-((1-(4-amino-2-fluorobut-2-en-1-yl)-2-(1-hydroxyethyl)-1H-pyrrolo[3,2-b]pyridin-3-yl)methyl)-N,N-dimethylbenzenesulfonamide dihydrochloride] | < 0.3 | > 3 | > 0.3 | > 3
Cc1c(Cc2ccc(S(C)(=O)=O)nc2)c2nc(C(C)(F)F)ccc2n1C/C(F)=C/CN [Compound 30, (Z)-4-(5-(1,1-difluoroethyl)-2-methyl-3-((6-(methylsulfonyl)pyridin-3-yl)methyl)-1H-pyrrolo[3,2-b]pyridin-1-yl)-3-fluorobut-2-en-1-amine trihydrochloride] | < 0.3 | > 3 | > 0.3 | > 3
Cc1c(Cc2ccc(S(C)(=O)=O)nc2)c2nc(C(F)(F)F)ccc2n1C/C(F)=C/CN [Compound 31, (Z)-3-fluoro-4-(2-methyl-3-((6-(methylsulfonyl)pyridin-3-yl)methyl)-5-(trifluoromethyl)-1H-pyrrolo[3,2-b]pyridin-1-yl)but-2-en-1-amine trihydrochloride] | < 0.3 | > 3 | > 0.3 | > 3
Cc1c(Cc2ccc(S(=O)(=O)N(C)C)cc2)c2cnccc2n1C/C(F)=C/CN [Compound 32, (Z)-4-((1-(4-amino-2-fluorobut-2-en-1-yl)-2-methyl-1H-pyrrolo[3,2-c]pyridin-3-yl)methyl)-N,N-dimethylbenzenesulfonamide dihydrochloride] | < 0.3 | > 3 | > 0.3 | > 3
CC(C)c1c(Cc2ccc(S(C)(=O)=O)cc2)c2ncccc2n1C/C(F)=C/CN [Compound 33, (Z)-3-fluoro-4-(2-isopropyl-3-(4-(methylsulfonyl)benzyl)-1H-pyrrolo[3,2-b]pyridin-1-yl)but-2-en-1-amine dihydrochloride] | < 0.3 | > 3 | > 0.3 | > 3
Cc1cc(S(C)(=O)=O)ccc1Cc1c(C)n(C/C(F)=C/CN)c2cccnc12 [Compound 34, (Z)-3-fluoro-4-(2-methyl-3-(2-methyl-4-(methylsulfonyl)benzyl)-1H-pyrrolo[3,2-b]pyridin-1-yl)but-2-en-1-amine dihydrochloride] | < 0.3 | > 3 | > 0.3 | > 3
Cc1c(Cc2ccc(S(C)(=O)=O)c(Cl)c2)c2ncccc2n1C/C(F)=C/CN [Compound 35, (Z)-4-(3-(3-chloro-4-(methylsulfonyl)benzyl)-2-methyl-1H-pyrrolo[3,2-b]pyridin-1-yl)-3-fluorobut-2-en-1-amine dihydrochloride] | < 0.3 | > 3 | > 0.3 | > 3
Cc1cc2c(cn1)c(Cc1ccc(S(C)(=O)=O)cc1)c(C)n2C/C(F)=C/CN [Compound 36, (Z)-4-(2,6-dimethyl-3-(4-(methylsulfonyl)benzyl)-1H-pyrrolo[3,2-c]pyridin-1-yl)-3-fluorobut-2-en-1-amine dihydrochloride] | < 0.3 | > 3 | > 0.3 | > 3
Cc1cc2c(nn1)c(Cc1ccc(S(=O)(=O)N(C)C)cc1)c(C)n2C/C(F)=C/CN [Compound 37, (Z)-4-((5-(4-amino-2-fluorobut-2-en-1-yl)-3,6-dimethyl-5H-pyrrolo[3,2-c]pyridazin-7-yl)methyl)-N,N-dimethylbenzenesulfonamide dihydrochloride] | < 0.3 | > 3 | > 0.3 | > 3
Cc1ncc2c(n1)c(Cc1ccc(S(C)(=O)=O)cc1)c(C)n2C/C(F)=C/CN [Compound 38, (Z)-4-(2,6-dimethyl-7-(4-(methylsulfonyl)benzyl)-5H-pyrrolo[3,2-d]pyrimidin-5-yl)-3-fluorobut-2-en-1-amine dihydrochloride] | < 0.3 | > 3 | > 0.3 | > 3
